Data reported in patent publication US20250186321A1, “FORMULATION USING AMINO ACID AND CARBOXYLIC ACID, ORGANIC SALT, AND COMPOSITION COMPRISING SAME AND USE THEREOF” (MIYOSHI OIL & FAT CO., LTD., priority 2021, published 2025).

How the values were obtained:
Type in all cases: physicochemical
[1] = Appearance of formulation (state at 25° C.); details: formulation at the compounding molar ratio listed
[2] = Appearance of formulation (state at 25° C.); details: 25° C., components (A) and (B) at the compounding molar ratio shown
Experimental: Formulations 1 to 427 shown in Tables 1A to 1D were prepared by the above-described method using the components (A) and (B) at the compounding molar ratios shown in the tables, and their states at 25° C. were observed.

[3] = Water retention evaluation (moisture reduction rate); details: for Moisture eduction rate / Moisture content before test (A): 80 wt. % aqueous solution; for Moisture eduction rate: 24 hours at 35° C. and 25% RH, calculated from A and B; for Moisture content before test (A): Karl Fischer; for Presence or absence of hydrates: left until the moisture content remained unchanged, based on final moisture content; for n-hydrate: number of hydrated water based on final moisture content
Experimental: 80 wt. % aqueous solutions of the formulations (organic salts) of the working examples 428 to 459 and comparative examples 1 to 5 in Tables 2A and 2B were prepared, and the water contents were measured using a Karl Fischer moisture meter (CA-200 manufactured by Mitsubishi Chemical Analytech Co., Ltd.). It was confirmed that the water contents of them were 20.0 wt. % (moisture content before test: A). Each of the 1.0 g samples was added to a screw tube, and left uncovered to stand still for 24 hours in a constant temperature and humidity bath (KCL-2000W manufactured by Tokyo Rikakikai Co., Ltd.) which was set at 35° C. and 25% RH. Moisture contents after being left for 24 hours were measured again (moisture content after test: B) to evaluate their water retention property by using the following formula for calculating the moisture reduction rates. After that, it was left to stand still until the moisture content remained unchanged, and determinations of the hydrate and the number of hydrated water were made based on the final moisture contents. • Moisture content before test: A (%) • Moisture content after test: B (%)

[4] = Hygroscopicity evaluation (moisture content); details: for Hygroscopicity test Moisture content after test: dried in vacuum at 60° C. for 18 hours, then 1 month at room temperature, Karl Fischer; for Presence or absence of hydrates / n-hydrate: hygroscopicity test, Table 3
Experimental: The working examples 460 to 470 and the comparative example 6 in Table 3 were completely dried in a vacuum dryer at 60° C. for 18 hours, and then left to stand still at room temperature for 1 month whose moisture contents were then measured using a Karl Fischer moisture meter (CA-200 manufactured by Mitsubishi Chemical Analytech Co., Ltd.) to evaluate their hygroscopicity.

| SMILES | state at 25° C. ([1]; Tables 2A/2B) | state at 25° C. [2] | Moisture eduction rate [3] [%] | Moisture content before test (A) [3] [%] | Presence or absence of hydrates [3] | state at 25° C. ([1]; Table 3) | Hygroscopicity test Moisture content after test [4] [%] | Presence or absence of hydrates [4] | n-hydrate [4] | state at 25° C. ([2]; listed as Working example 9) | n-hydrate [3] | state at 25° C. ([2]; listed as Working example 30) | state at 25° C. ([2]; listed as Working example 37) | state at 25° C. ([2]; listed as Working example 93) | state at 25° C. ([2]; listed as Working example 142) | state at 25° C. ([2]; listed as Working example 175) |
| --- | --- | --- | --- | --- | --- | --- | --- | --- | --- | --- | --- | --- | --- | --- | --- | --- |
| CCCCCC(=O)O.NCCCC[C@H](N)C(=O)O [Formulation 4] | Solid | Solid | 60.2 | 20.0 | Absent | – | – | – | – | – | – | – | – | – | – | – |
| CCCCCCCC/C=C\CCCCCCCC(=O)O.NCCCC[C@H](N)C(=O)O [Formulation 7] | – | Solid | – | – | – | Solid | 2.1 | Present | Multihydrate | – | – | – | – | – | – | – |
| NCCCC[C@H](N)C(=O)O.O=C(O)[C@H](O)[C@@H](O)[C@H](O)[C@H](O)CO [Formulation 9] | Liquid | Liquid | 22.9 | 20.0 | Present | – | – | – | – | liquid | Dihydrate | – | – | – | – | – |
| NCCCC[C@H](N)C(=O)O.O=C(O)[C@H](O)[C@@H](O)[C@H](O)[C@H](O)CO.O=C(O)[C@H](O)[C@@H](O)[C@H](O)[C@H](O)CO [Formulation 30] | Liquid | Liquid | 42.7 | 20.0 | Present | – | – | – | – | – | – | liquid | – | – | – | – |
| NCCCC[C@H](N)C(=O)O.NCCCC[C@H](N)C(=O)O.NCCCC[C@H](N)C(=O)O.O=C(O)CC(O)(CC(=O)O)C(=O)O.O=C(O)CC(O)(CC(=O)O)C(=O)O [Formulation 37] | Liquid | Liquid | 22.4 | 20.0 | Present | – | – | – | – | – | Dihydrate | – | liquid | – | – | – |
| N=C(N)NCCC[C@H](N)C(=O)O.O=C(O)[C@H](O)[C@@H](O)[C@H](O)[C@H](O)CO [Formulation 51] | Liquid | Liquid | 23.7 | 20.0 | Present | – | – | – | – | – | Mono- | – | – | – | – | – |
| CC(O)C(=O)O.N=C(N)NCCC[C@H](N)C(=O)O [Formulation 52] | Liquid | Liquid | 24.3 | 20.0 | Present | – | – | – | – | – | Mono- | – | – | – | – | – |
| N=C(N)NCCC[C@H](N)C(=O)O.O=C(O)CC(O)(CC(=O)O)C(=O)O [Formulation 58] | Liquid | Liquid | 21.8 | 20.0 | Present | – | – | – | – | – | – | – | – | – | – | – |
| CCCCCCCC/C=C\CCCCCCCC(=O)O.CCCCCCCC/C=C\CCCCCCCC(=O)O.N=C(N)NCCC[C@H](N)C(=O)O [Formulation 70] | – | Liquid | – | – | – | Liquid | 9.4 | Present | Multihydrate | – | – | – | – | – | – | – |
| N[C@@H](Cc1c[nH]cn1)C(=O)O.O=C(O)[C@H](O)[C@@H](O)[C@H](O)[C@H](O)CO [Formulation 93] | Liquid | Liquid | 20.4 | 20.0 | Present | – | – | – | – | – | – | – | – | liquid | – | – |
| NCC(=O)O.O=C(O)CC(O)(CC(=O)O)C(=O)O [Formulation 142] | Liquid | Liquid | 32.2 | 20.0 | Present | – | – | – | – | – | Hemi- | – | – | – | liquid | – |
| NCCCC(=O)O.O=C(O)[C@H](O)[C@@H](O)[C@H](O)[C@H](O)CO [Formulation 175] | Liquid | Liquid | 36.7 | 20.0 | Present | – | – | – | – | – | Mono- | – | – | – | – | liquid |
